These results are taken from article PMC6747088, “THP-1 Cells and Pro-Inflammatory Cytokine Production: An In Vitro Tool for Functional Characterization of NOD1/NOD2 Antagonists” (International Journal of Molecular Sciences, 2019).

For data set [1], the system named is THP-1 cells. Put plainly: IL-8 and TNF-α release from THP-1 cells treated with the compound alone or with LPS. The format is cell-based, human. The settings on record: 20 h; for TNF-α release from naive THP-1 cells: agonist alone; for IL-8 release from naive THP-1 cells: MDP 2–200 µM, C12-iE-DAP 2–50 µM; for effect on LPS-induced TNF-α production: agonist 10 µM in combination with 1 ng/mL LPS. The method, then:
THP-1 cells represent a convenient, robust, and reproducible alternative, which enables intra-assay comparison. A consistent protocol is of key importance to evaluate the compounds in a reproducible and unbiased manner. […] Recognition of an NOD1/NOD2 agonist triggers a signaling pathway leading to the activation of NF-κB and the production of pro-inflammatory cytokines (e.g., TNF-α, IL-1β, IL-6, IL-8). To define the optimal experimental conditions, preliminary experiments were conducted with C12-iE-DAP (lauroyl-γ-D-glutamyl-meso-diaminopimelic acid), an acylated derivative of iE-DAP, as a reference NOD1 agonist, and MDP as a NOD2 agonist. For isolated stimulation of NOD2 and NOD1 receptors, increasing concentrations of MDP (2–200 µM) and C12-iE-DAP (2–50 µM) were used, and the exposure time of 20 h was chosen based on previous experiments using THP-1 cells.
Figure 1 Dose-dependent effect of NOD1/NOD2 agonists on IL-8 (A) and TNF-α (B) secretion from THP-1 cells. IL-8 and TNF-α release from THP-1 cells were measured following 20 h treatment with increasing concentrations (up to 200 µM) of either C12-iE-DAP (NOD1 agonist) or MDP (NOD2 agonist). Columns represent means of duplicates ± SD of three independent experiments; * p < 0.05 vs. CTRL (Mann–Whitney test). Synergy of NOD1/NOD2 agonists and LPS (TLR4 agonist) on IL-8 (C) and TNF-α (D) secretion. IL-8 and TNF-α release from THP-1 cells were measured following 20 h treatment with either C12-iE-DAP or MDP, both at 2 and 10 µM, in the presence or absence of increasing concentrations of LPS (1 or 10 ng/mL). Columns represent means of duplicates ± SD of three independent experiments; * p < 0.05 vs. CTRL (Mann–Whitney test).
(§1) For all experiments, THP-1 cells (Istituto Zooprofilattico di Brescia, Brescia, Italy) were diluted to 10^6 cells/mL in RPMI 1640 containing 2 mM L-glutamine, 0.1 mg/mL streptomycin, 100 IU/mL penicillin, 50 μM 2-mercaptoethanol, and supplemented with 10% heat-inactivated fetal calf serum (media) and cultured at 37 °C in 5% CO2. The experiments were carried out on passages 3–12. To evaluate IL-8 and TNF-α production, cultures were set up in 24-well culture plates containing 500 μL of cells. They were pretreated with selected NOD antagonists at increasing concentrations for 1 h before the addition of either MDP or C12-iE-DAP (both at 10 µM) and then incubated for 20 h. Each concentration was tested in duplicate, and untreated cells were exposed to DMSO, which represented the vehicle control (not exceeding 0.2% final concentration). In synergy studies, cells were additionally stimulated with lipopolysaccharide (LPS, from Escherichia coli serotype 0127:B8, Sigma) at a final concentration of 1–10 ng/mL, as indicated in the figure legends. Cell-free supernatants were collected at 20 h by centrifugation at 3000 rpm for 5 min and stored at −80 °C.
(§2) IL-8 and TNF-α release from THP-1 cells were measured in cell-free supernatants obtained by centrifugation at 3000 rpm for 5 min and stored at −80 °C until measurement. IL-8 and TNF-α production were assessed by specific sandwich ELISA (Immunotools, Friesoythe, Germany; eBioScience/R&D Systems, Minneapolis, MN, USA). Results are expressed in pg/mL. The limit of detection was 15.6 pg/mL for IL-8 and 4 pg/mL for TNF-α.

For data set [2], the target named is T1, NOD1 (Homo sapiens, UniProt Q9Y239).
T1 construct: THP-1 cells also express high levels of native functional NOD1 and NOD2 and respond to NOD stimulation by IL-8 secretion; endogenous in cells; host or cells: THP-1 cells (Istituto Zooprofilattico di Brescia)
T1 sequence (Q9Y239 1-953): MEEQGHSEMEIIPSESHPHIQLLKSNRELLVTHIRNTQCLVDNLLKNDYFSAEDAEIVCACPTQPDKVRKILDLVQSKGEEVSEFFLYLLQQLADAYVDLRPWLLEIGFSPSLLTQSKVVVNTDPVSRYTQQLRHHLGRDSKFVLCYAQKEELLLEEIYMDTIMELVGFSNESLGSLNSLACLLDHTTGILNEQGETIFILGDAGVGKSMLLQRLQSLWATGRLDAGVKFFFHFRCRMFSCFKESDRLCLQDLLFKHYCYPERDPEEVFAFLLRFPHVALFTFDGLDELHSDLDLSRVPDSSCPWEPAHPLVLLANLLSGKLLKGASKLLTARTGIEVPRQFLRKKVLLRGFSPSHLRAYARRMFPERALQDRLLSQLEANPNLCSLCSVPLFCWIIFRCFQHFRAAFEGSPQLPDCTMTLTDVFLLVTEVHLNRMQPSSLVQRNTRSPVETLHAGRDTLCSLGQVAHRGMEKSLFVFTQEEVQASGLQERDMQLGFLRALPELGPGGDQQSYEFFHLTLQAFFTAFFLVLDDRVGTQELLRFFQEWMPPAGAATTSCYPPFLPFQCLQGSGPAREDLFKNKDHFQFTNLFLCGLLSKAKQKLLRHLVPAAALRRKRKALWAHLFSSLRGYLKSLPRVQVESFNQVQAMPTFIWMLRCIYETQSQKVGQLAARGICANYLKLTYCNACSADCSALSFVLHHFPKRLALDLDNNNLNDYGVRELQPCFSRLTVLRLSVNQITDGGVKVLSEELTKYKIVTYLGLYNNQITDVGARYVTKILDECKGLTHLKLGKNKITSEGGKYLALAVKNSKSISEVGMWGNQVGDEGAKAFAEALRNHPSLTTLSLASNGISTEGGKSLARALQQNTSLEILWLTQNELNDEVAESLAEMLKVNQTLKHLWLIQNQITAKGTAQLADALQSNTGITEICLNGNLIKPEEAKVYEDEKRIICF
Put plainly: C12-iE-DAP (NOD1 agonist)-induced IL-8 secretion from THP-1 cells. The settings on record: 1 h pretreatment, C12-iE-DAP 10 µM, 20 h, read-out: IC50 (NOD1), inhibition of IL-8 release. The format is cell-based.
Description: For all experiments, THP-1 cells (Istituto Zooprofilattico di Brescia, Brescia, Italy) were diluted to 10^6 cells/mL in RPMI 1640 containing 2 mM L-glutamine, 0.1 mg/mL streptomycin, 100 IU/mL penicillin, 50 μM 2-mercaptoethanol, and supplemented with 10% heat-inactivated fetal calf serum (media) and cultured at 37 °C in 5% CO2. The experiments were carried out on passages 3–12. To evaluate IL-8 and TNF-α production, cultures were set up in 24-well culture plates containing 500 μL of cells. They were pretreated with selected NOD antagonists at increasing concentrations for 1 h before the addition of either MDP or C12-iE-DAP (both at 10 µM) and then incubated for 20 h. Each concentration was tested in duplicate, and untreated cells were exposed to DMSO, which represented the vehicle control (not exceeding 0.2% final concentration). […] Cell-free supernatants were collected at 20 h by centrifugation at 3000 rpm for 5 min and stored at −80 °C.

Data set [3] concerns the target T2, NOD2 (Homo sapiens, UniProt Q9HC29).
T2 construct: THP-1 cells also express high levels of native functional NOD1 and NOD2 and respond to NOD stimulation by IL-8 secretion; endogenous in cells; host or cells: THP-1 cells (Istituto Zooprofilattico di Brescia)
Put plainly: MDP (NOD2 agonist)-induced IL-8 secretion from THP-1 cells. The settings on record: 1 h pretreatment, MDP 10 µM, 20 h, read-out: IC50 (NOD2), inhibition of IL-8 release. The data set is classed as cell-based. As for the experimental part: as §1, §2
All experiments were performed at least three times, with average values expressed as means ± standard deviation (SD). Statistical analyses were performed using GraphPad Prism 6 (La Jolla, CA, USA). Statistical significance was determined either with the Mann-Whitney or Kruskal-Wallis followed by a post hoc Dunn’s multiple comparison test, as indicated in the figure legends. Differences were considered nonsignificant for p > 0.05, significant (*) for p < 0.05, very significant (**) for p < 0.01 and extremely significant (***) for p < 0.001. IC50 values of NOD1/2 inhibition were calculated by a nonlinear regression model using GraphPad Prism 6 software.

In a further data set the test system is NOD1/2–TLR4 synergy. Put plainly: NOD1/2–TLR4 synergy: TNF-α release from co-stimulated THP-1 cells. The data set is classed as cell-based, human. The settings on record: antagonist 10 µM 1 h, NOD agonist 10 µM + LPS 1 ng/mL, 20 h. The method, then:
Figure 5 Effect of selected NOD1/NOD2 antagonists on NOD1/2–TLR4 synergy. The THP-1 cells were preincubated for 1 h with NOD antagonists (at 10 µM) before being stimulated with either C12-iE-DAP or MDP (both at 10 µM) and 1 ng/mL LPS for 20 h, followed by determination of TNF-α release in the supernatant. Columns represent means of duplicates ± SD of three independent experiments. * p < 0.05, ** p < 0.01 and *** p < 0.001 vs. MDP/LPS- or C12-iE-DAP/LPS-treated cells (Kruskal-Wallis test and post hoc Dunn’s multiple comparison test).
For all experiments, THP-1 cells (Istituto Zooprofilattico di Brescia, Brescia, Italy) were diluted to 10^6 cells/mL in RPMI 1640 containing 2 mM L-glutamine, 0.1 mg/mL streptomycin, 100 IU/mL penicillin, 50 μM 2-mercaptoethanol, and supplemented with 10% heat-inactivated fetal calf serum (media) and cultured at 37 °C in 5% CO2. The experiments were carried out on passages 3–12. To evaluate IL-8 and TNF-α production, cultures were set up in 24-well culture plates containing 500 μL of cells. […]
IL-8 and TNF-α release from THP-1 cells were measured in cell-free supernatants obtained by centrifugation at 3000 rpm for 5 min and stored at −80 °C until measurement. IL-8 and TNF-α production were assessed by specific sandwich ELISA (Immunotools, Friesoythe, Germany; eBioScience/R&D Systems, Minneapolis, MN, USA). […]

The subject of data set [4] is NOD1. The settings on record: reporter assay, NOD-overexpressing HEK cells; cited from earlier work. Background: A reporter such as luciferase makes a cellular process visible.
The test system of data set [5] is THP-1 cells. Nature of the data set: LDH leakage cytotoxicity in THP-1 cells. The format is cell-based, human. The settings on record: 20 h. As for the experimental part:
Prior to investigating the effects of selected NOD antagonists on cytokine production, their potential cytotoxicity for THP-1 cells was assessed. Cell viability was assessed by leakage of LDH from damaged cells. LDH is a well-known indicator of cell membrane integrity and cell viability. Cells were treated for 20 h with the compound of interest at concentrations of up to 50 µM. LDH activity was determined in cell-free supernatants using a commercially available colorimetric kit (Takara Bio Inc., Kusatsu, Japan). Results are expressed as OD.
For orientation: LDH leaks from cells whose membrane has failed.

Data set [6] deals with NOD2. The settings on record: reporter assay, NOD-overexpressing HEK cells; cited from earlier work.

Some results are limits rather than exact numbers.

T2 sequence (Q9HC29 whole entry): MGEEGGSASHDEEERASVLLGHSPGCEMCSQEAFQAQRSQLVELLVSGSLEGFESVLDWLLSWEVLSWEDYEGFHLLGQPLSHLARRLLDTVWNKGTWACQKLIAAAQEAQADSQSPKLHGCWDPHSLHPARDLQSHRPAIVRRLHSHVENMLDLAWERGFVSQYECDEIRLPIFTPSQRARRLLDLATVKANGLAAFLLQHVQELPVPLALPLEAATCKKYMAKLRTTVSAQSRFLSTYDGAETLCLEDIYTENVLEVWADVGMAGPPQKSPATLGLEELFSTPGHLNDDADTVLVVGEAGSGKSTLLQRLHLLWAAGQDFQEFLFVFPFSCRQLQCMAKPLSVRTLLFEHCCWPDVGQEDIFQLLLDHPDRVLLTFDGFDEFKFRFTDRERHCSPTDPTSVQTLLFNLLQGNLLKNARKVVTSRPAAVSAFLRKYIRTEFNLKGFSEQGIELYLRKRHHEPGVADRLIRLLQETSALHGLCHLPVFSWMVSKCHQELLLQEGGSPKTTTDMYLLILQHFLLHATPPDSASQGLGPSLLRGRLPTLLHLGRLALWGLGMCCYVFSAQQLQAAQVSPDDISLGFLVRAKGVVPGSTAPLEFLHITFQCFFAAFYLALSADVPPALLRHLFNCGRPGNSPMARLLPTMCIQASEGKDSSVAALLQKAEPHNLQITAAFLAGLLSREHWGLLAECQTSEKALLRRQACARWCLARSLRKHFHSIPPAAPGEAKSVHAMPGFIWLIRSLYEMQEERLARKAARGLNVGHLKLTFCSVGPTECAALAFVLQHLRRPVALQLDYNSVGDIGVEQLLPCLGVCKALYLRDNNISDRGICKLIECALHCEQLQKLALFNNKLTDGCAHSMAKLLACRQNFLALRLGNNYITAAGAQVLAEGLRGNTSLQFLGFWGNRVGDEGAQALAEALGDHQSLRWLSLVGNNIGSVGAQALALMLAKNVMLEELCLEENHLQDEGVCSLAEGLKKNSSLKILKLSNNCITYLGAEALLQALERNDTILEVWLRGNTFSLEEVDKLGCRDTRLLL

Turning to `CC(=O)N[C@H]1C(O)O[C@H](CO)[C@@H](O)[C@@H]1O[C@H](C)C(=O)N[C@@H](C)C(=O)N[C@H](CCC(=O)O)C(N)=O` (mixture of isomers) [MDP, muramyl dipeptide], in the data set on THP-1 cells [1], the “TNF-α release from naive THP-1 cells” value is “neither MDP nor C12-iE-DAP produced substantial TNF-α release”, the “IL-8 release from naive THP-1 cells” value was “dose-dependent increase in IL-8 release” and the “effect on LPS-induced TNF-α production” value is given as “significantly potentiated the production of TNF-α”.

Take `CCCCCCCCCCCC(=O)N[C@H](CCC(=O)N[C@@H](CCC[C@@H](N)C(=O)O)C(=O)O)C(=O)O` [C12-iE-DAP, lauroyl-γ-D-glutamyl-meso-diaminopimelic acid]: in the data set with THP-1 cells [1], the “TNF-α release from naive THP-1 cells” value is listed as “neither MDP nor C12-iE-DAP produced substantial TNF-α release”, the “IL-8 release from naive THP-1 cells” value is recorded as “dose-dependent increase in IL-8 release” and the “effect on LPS-induced TNF-α production” value is given as “significantly potentiated the production of TNF-α”.

By IC50 is commonly meant the concentration that gives 50% inhibition. For the compound `O=C(Cn1c(CCNC(=O)c2ccccc2)nc2ccccc21)Nc1ccc2c(c1)CCC2` [GSK669], the IC50 was greater than 50 µM on NOD1 [2], 1.57 ± 0.15 µM at NOD2 [3], greater than 50 µM in the data set with NOD1 [4] and 3.2 µM in the data set on NOD2 [6]. Further, in the data set on NOD1/2–TLR4 synergy, the “effect on TNF-α release from co-stimulated cells” value is given as “reduced TNF-α release to the level induced by the TLR4 agonist alone”. Further, in the data set on THP-1 cells [5], the “concentrations showing cytotoxicity (LDH leakage)” value is on record as no less than 10 µM.

In the case of `Cc1ccc(S(=O)(=O)n2c(N)nc3ccccc32)cc1` [ML130], the figures for the IC50 at NOD2 [3] and with NOD2 [6] were greater than 50 µM and 54.9 µM, respectively.

For the compound `C/C=C/Cn1c(=O)c2[nH]c(SCCCc3ccccc3)nc2n(C)c1=O` [ML146], the IC50 is 10.5 ± 1.32 µM at NOD1 [2], 32.2 ± 5.16 µM on NOD2 [3], 4.35 µM in the data set with NOD1 [4] and 12.9 µM with NOD2 [6].

For the compound `CCOC(=O)c1cc2ccccc2n1S(=O)(=O)c1ccc(C)cc1` [SZA-39], the IC50 is 27.5 ± 6.85 µM on NOD1 [2], 14.4 ± 1.97 µM at NOD2 [3], 5.74 µM in the data set on NOD1 [4] and 6.45 µM in the data set on NOD2 [6].
